Test results published in EPA's ToxValDB 9.5 (doi:10.2903/j.efsa.2015.4279).

Assays:
Typhlodromus pyri = test: LR50; higher = less toxic; details: not reported; mortality
Colinus virginianus = details: chronic
Folsomia candida = details: chronic/long-term
Canidae = details: oral, Dog Other, hematological
Oncorhynchus mykiss = details: chronic/long-term; duration: 95 days; growth
Anas platyrhynchos = details: acute; oral; unspecified; mortality
Daphnia magna = details: chronic/long-term; duration: 21 days; reproduction
Oryctolagus sp. = details: reproduction developmental; hematological
Apis mellifera = details: acute; oral; unspecified; mortality
Bibionidae = details: chronic/long-term; duration: 28 days; development

## O=C(Nc1ccc(F)cc1)c1cccc(Oc2cccc(C(F)(F)F)c2)n1 [Picolinafen]
Typhlodromus pyri
  LR50: > 100 g/ha
Rattus norvegicus; acute, mortality
  LD50: > 5000 mg/kg-day
Rattus norvegicus; chronic
  NOAEL: 4 mg/kg-day
Colinus virginianus
  NOEL: 59.5 mg/kg-day
Tagia sp.; acute, duration: 14 days, mortality
  LC50: > 500 mg/kg
Tagia sp.; chronic/long-term, duration: 8 weeks
  NOEC: 1.68 mg/kg
Folsomia candida
  NOEC: 250 mg/kg
Canidae; chronic, duration: 1 years
  NOAEL: 1.4 mg/kg-day
Canidae; subchronic, duration: 90 days
  NOAEL: 5.2 mg/kg-day
Oncorhynchus mykiss
  NOEC: 0.0064 mg/L
Anas platyrhynchos
  LD50: > 2250 mg/kg-day
Daphnia magna
  NOEC: 0.007 mg/L
Oryctolagus sp.
  NOAEL: 5 mg/kg-day
Apis mellifera
  LD50: > 200 µg/piece
Bibionidae
  NOEC: 0.18 mg/L
